Laboratory results reported in US7838706B2, “Preparation and the use of ethoxy combretastatins and their prodrugs” (priority 2006, dated 2010).
Where two headings read alike, the source gives them in different places.

Tests used:
Type in all cases: cell-based
[1] = tested on: Bel-7402 (human liver cancer cell); assay: In vitro anti-tumor activity evaluation (SRB/MTT, 72 hours); conditions: read-out: IC50 Liver cancer Bel-7402
Description: (§1) The tumor cell cultured in vitro was treated with ethoxy combretastatin derivatives for 72 hours, and the MTT and SRB assays was used to evaluate its inhibition of tumor proliferation.
(§2) Cell Line: H460 (human lung cancer cell), SGC7901 (human stomach cancer cell), HT-29 (human colon cancer cell), Bel-7402 (human liver cancer cell).
(§3) Experimental Design: The cells were incubated with the compounds in various concentrations (100, 10, 1, 0.1, 0.01, 0.001 μM) for 72 hours. SRB assay was used to evaluate the inhibition effect of the compounds on cell proliferation. The inhibition rate was calculated, and IC50 was calculated by using Logit model as a function of the inhibition rate. And the anti-tumor activity of the compounds in vitro was compared.
(§4) The Inhibition Rate was Expressed Using the Following Equation: Inhibition rate (%)=[(average OD value of control group−average OD value of experimental group)/average OD value of control group]×100%.

[2] = tested on: H460 (human lung cancer cell); assay: as above; conditions: read-out: IC50 Non-small cell lung cancer H460
Description: as §1, §2, §3, §4

[3] = tested on: HT-29 (human colon cancer cell); assay: as above; conditions: read-out: IC50 Colon cancer HT29
Description: as §1, §2, §3, §4

[4] = tested on: SGC7901 (human stomach cancer cell); assay: as above; conditions: read-out: IC50 Stomach cancer SGC-7901
Description: as §1, §2, §3, §4

[5] = tested on: human umbilical vein endothelial cells (HUVEC); assay: In vitro neovascular inhibition evaluation
Description: Anti-angiogenesis effects of ethoxy combretastatins were assessed in human umbilical vein endothelial cells (HUVEC) using the same method described in Example 10.

[6] = Homo sapiens, read-out: IC50 HUVEC

SMILES | IC50 ([1]; Bel-7402 cells, 72 hours incubation) | IC50 ([2]; H460 cells, 72 hours incubation) | IC50 ([3]; HT29 cells, 72 hours incubation) | IC50 ([4]; SGC-7901 cells, 72 hours incubation) | IC50 ([5]; same method as Example 10, read-out: IC50 HUVEC) | IC50 ([1]; Homo sapiens, Bel-7402, 72 h) | IC50 ([2]; Homo sapiens, NCI-H460, 72 h) | IC50 ([3]; Homo sapiens, HT-29, 72 h) | IC50 ([4]; Homo sapiens, SGC-7901, 72 h) | IC50 [5, 6]
COc1ccc(/C=C\c2cc(OC)c(OC)c(OC)c2)cc1O [CA-4, (Z)-1-(3,4,5-trimethoxy)phenyl-2-(3′-hydroxy-4′-methoxy)phenylethylene] | 750 nM | 27 nM | 2380 nM | 10 nM | 3700 nM | – | – | – | – | –
CCOc1ccc(/C=C\c2cc(OC)c(OC)c(OC)c2)cc1N [3′-Amino ethoxy combretastatin, (Z)-1-(3,4,5-trimethoxy)phenyl-2-(3′-amino-4′-ethoxy) Phenylethylene] | – | – | – | – | – | 330 nM | 8 nM | 25 nM | 6 nM | 1500 nM
CCOc1ccc(/C=C\c2cc(OC)c(OC)c(OC)c2)cc1O [Ethoxy combretastatin, (Z)-1-(3,4,5-trimethoxy)phenyl-2-(3′-hydroxy-4′-ethoxy) Phenylethylene] | – | – | – | – | – | 620 nM | 11 nM | 47 nM | 8 nM | 2200 nM
